Reference: PubChem BioAssay (NCI)
Values joined by “and” are separate entries in the source; they are usually repeats but may differ in a detail not shown here. Equal values may be shown once.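 A five-concentration, 48-hour dose response in 96-well plates underlies each endpoint, interpolated linearly between surrounding concentrations. GI50: concentration for 50% inhibition of growth. The concentration for full growth arrest is given as TGI.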

Columns and labels:
Assay in all cases: NCI tumour cell line growth inhibition, 48 h
[1] = system: 786-0 renal
[2] = system: A498 renal
[3] = system: A549 NSCLC
[4] = system: ACHN renal
[5] = system: BT-549 breast
[6] = system: CAKI-1 renal
[7] = system: COLO 205 colon
[8] = system: DU-145 prostate
[9] = system: EKVX NSCLC
[10] = system: HCC-2998 colon
[11] = system: HCT-116 colon
[12] = system: HCT-15 colon
[13] = system: HL-60(TB) leukemia
[14] = system: HOP-62 NSCLC
[15] = system: HOP-92 NSCLC
[16] = system: HS 578T breast
[17] = system: HT29 colon
[18] = system: IGROV1 ovarian
[19] = system: K-562 leukemia
[20] = system: KM12 colon
[21] = system: LOX IMVI melanoma
[22] = system: MALME-3M melanoma
[23] = system: MCF7 breast
[24] = system: MDA-MB-231 breast
[25] = system: MDA-MB-435
[26] = system: MOLT-4 leukemia
[27] = system: NCI-H226 lung
[28] = system: NCI-H23 lung
[29] = system: NCI-H460 lung
[30] = system: NCI-H522 lung
[31] = system: NCI/ADR-RES ovarian
[32] = system: OVCAR-3 ovarian
[33] = system: OVCAR-4 ovarian
[34] = system: OVCAR-5 ovarian
[35] = system: OVCAR-8 ovarian
[36] = system: PC-3 prostate
[37] = system: RPMI-8226 leukemia
[38] = system: RXF 393 renal
[39] = system: SF-295 CNS
[40] = system: SF-539 CNS
[41] = system: SK-MEL-2 melanoma
[42] = system: SK-MEL-28 melanoma
[43] = system: SK-MEL-5 melanoma
[44] = system: SK-OV-3 ovarian
[45] = system: SN12C renal
[46] = system: SNB-19 CNS
[47] = system: SR leukemia
[48] = system: SW-620 colon
[49] = system: T-47D breast
[50] = system: TK-10 renal
[51] = system: U251 CNS
[52] = system: UACC-257 melanoma
[53] = system: UACC-62 melanoma
[54] = system: UO-31 renal

CC(C)C[C@H](NC(=O)[C@H](Cc1cccc2ccccc12)NS(=O)(=O)c1cccc2cccnc12)B(O)O
GI50 [1]: 49.5 nM
TGI [1]: 12800 nM
GI50 [2]: 3.42 nM
TGI [2]: 222 nM and 126 nM
GI50 [3]: 62.6 nM
TGI [3]: > 28900 nM
TGI [4]: > 38800 nM
GI50 [5]: 0.863 nM
TGI [5]: 39.5 nM
GI50 [6]: 32 nM
TGI [6]: 198 nM and 1190 nM
GI50 [7]: 28.8 nM
TGI [7]: 3790 nM
TGI [8]: 524 nM
GI50 [9]: 109 nM
TGI [9]: > 100000 nM
GI50 [10]: 17.4 nM
TGI [10]: 14.9 nM and 38.9 nM
GI50 [11]: 1.01 nM
TGI [11]: 20.3 nM and < 35.1 nM
GI50 [12]: 130 nM
TGI [12]: 403 nM
GI50 [13]: 0.204 nM
GI50 [14]: 51.1 nM
TGI [14]: 563 nM
GI50 [15]: 29.9 nM
TGI [15]: 54.7 nM and 93.8 nM
GI50 [16]: 1.37 nM
TGI [16]: 17 nM
GI50 [17]: 0.937 nM
TGI [17]: 22 nM
GI50 [18]: 33.1 nM
TGI [18]: 298 nM and 301 nM
GI50 [19]: 9.4 nM
TGI [19]: 163 nM
GI50 [20]: 17.8 nM
TGI [20]: 114 nM and 179 nM
GI50 [21]: 1.37 nM
TGI [21]: 22.6 nM and < 19.9 nM
GI50 [22]: 0.588 nM
TGI [22]: 17.5 nM and 20.8 nM
GI50 [23]: 0.525 nM
TGI [23]: > 30500 nM
TGI [24]: 56.7 nM and 59.7 nM
GI50 [25]: 0.241 nM
TGI [25]: 0.574 nM
GI50 [26]: 0.334 nM
TGI [26]: 2.28 nM
TGI [27]: 0.542 nM
GI50 [28]: 6.12 nM
TGI [28]: 132 nM and 199 nM
GI50 [29]: 61.8 nM
TGI [29]: 1350 nM
TGI [30]: 35.2 nM
TGI [31]: 17700 nM
GI50 [32]: 0.595 nM
TGI [32]: 14.9 nM and 30.9 nM
TGI [33]: 173 nM
GI50 [34]: 8.27 nM
TGI [34]: 138 nM and 246 nM
GI50 [35]: 117 nM
TGI [35]: 409 nM and 2900 nM
GI50 [36]: 53.4 nM
TGI [36]: 817 nM and 418 nM
GI50 [37]: 0.296 nM
TGI [37]: 0.934 nM
GI50 [38]: 9.19 nM
TGI [38]: 27.3 nM and < 23.7 nM
GI50 [39]: 61.4 nM and 59.6 nM
GI50 [40]: 0.193 nM
TGI [41]: 95 nM and 83.3 nM
GI50 [42]: 0.701 nM
TGI [42]: 11.6 nM
GI50 [43]: 5.39 nM
TGI [43]: 71.4 nM and 20.6 nM
TGI [44]: > 33800 nM
GI50 [45]: 7.1 nM
TGI [45]: 230 nM and 109 nM
TGI [46]: > 35300 nM
GI50 [47]: 0.169 nM
TGI [47]: 8.12 nM
GI50 [48]: 1.5 nM
TGI [48]: 22.3 nM
GI50 [49]: 0.928 nM
TGI [49]: 26.9 nM and < 21.8 nM
GI50 [50]: 36 nM
TGI [50]: 351 nM
GI50 [51]: 11 nM
TGI [51]: 1450 nM
TGI [52]: 29 nM and 35.7 nM
GI50 [53]: 4.88 nM
TGI [53]: 38.5 nM and 125 nM
GI50 [54]: 353 nM
TGI [54]: 1060 nM
